Article PMC6835155, “Lessons from LIMK1 enzymology and their impact on inhibitor design” (Biochemical Journal, 2019)
Where a name gives a salt, the structure may show the parent alone. Read-outs that look alike come from different tables or passages of the source.

How the values were obtained:
[1] = target: T1, LIMK2KD (Homo sapiens, UniProt P53671); experiment: Differential (dynamic) scanning fluorimetry (DSF) assay, LIMK2KD; type: binding
T1 construct: The cDNA coding for LIMK2 residues 330 to 632 was PCR amplified; His6 (N, cleaved yes); made in house; host or cells: baculovirus; Sf9 for virus, TriEx insect cells for expression

[2] = target: T2, LIMK1KD (Homo sapiens, UniProt P53667); experiment: Differential (dynamic) scanning fluorimetry (DSF) assay, LIMK1KD; type: binding
T2 construct: His6 (N, cleaved yes); made in house; host or cells: baculovirus; Sf9 for virus, TriEx insect cells for expression

[3] = read-out: TM Shift LIMK2 (K), LIMK2KD, compound 10 µM, single shot
[4] = LIMK2KD, compound 10 µM, single shot, read-out: TM Shift LIMK2 (K)
[5] = 2 µM LIMK1KD, compound 10 µM, single shot, read-out: TM Shift LIMK1 (K)
[6] = LIMK2KD, compound 10 µM, single shot, 10 µM
[7] = 2 µM LIMK1KD, compound 10 µM, single shot
[8] = LIMK2KD, compound 10 µM, single shot

T2 sequence (P53667 330-637): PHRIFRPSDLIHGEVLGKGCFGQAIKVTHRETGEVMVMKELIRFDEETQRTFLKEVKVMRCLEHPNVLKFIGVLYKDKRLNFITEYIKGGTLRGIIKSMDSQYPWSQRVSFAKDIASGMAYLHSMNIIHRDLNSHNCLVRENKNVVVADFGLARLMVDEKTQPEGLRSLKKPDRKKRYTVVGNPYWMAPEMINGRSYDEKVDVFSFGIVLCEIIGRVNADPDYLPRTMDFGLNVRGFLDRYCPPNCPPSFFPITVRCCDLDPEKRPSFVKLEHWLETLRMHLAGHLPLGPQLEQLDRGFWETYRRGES
T1 sequence (P53671 330-632): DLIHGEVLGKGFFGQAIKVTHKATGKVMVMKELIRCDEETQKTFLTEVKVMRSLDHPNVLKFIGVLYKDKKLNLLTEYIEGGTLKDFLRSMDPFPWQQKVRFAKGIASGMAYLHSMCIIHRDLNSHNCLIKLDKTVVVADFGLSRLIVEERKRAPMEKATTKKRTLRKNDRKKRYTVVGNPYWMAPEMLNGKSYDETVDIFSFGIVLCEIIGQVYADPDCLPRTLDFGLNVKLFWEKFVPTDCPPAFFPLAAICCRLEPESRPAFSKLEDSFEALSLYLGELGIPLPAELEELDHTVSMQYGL

| Structure (SMILES) | ΔTm at 10 µM [1, 4] [°C] | ΔTm at 10 µM [2, 5] [°C] | TM Shift LIMK1 (K) [2, 7] [K] | further results |
| --- | --- | --- | --- | --- |
| CCCCCCCCc1ccc(CCC(N)(CO)CO)cc1 [Fingolimod (FTY720) HCl, Fingolimod] |  |  |  | ΔTm at 10 µM [1, 3]: 1.1 °C; ΔTm at 10 µM ([2]; read-out: TM Shift LIMK1 (K), 2 µM LIMK1KD, compound 10 µM, single shot): -0.7 °C |
| COc1cc2c(Oc3ccc(NC(=O)C4(C(=O)Nc5ccc(F)cc5)CC4)cc3F)ccnc2cc1OCCCN1CCOCC1 [Foretinib (GSK1363089), Foretinib] | -0.4 | 1.9 |  |  |
| COc1cc(Nc2ncc(F)c(Nc3ccc4c(n3)N(COP(=O)(O)O)C(=O)C(C)(C)O4)n2)cc(OC)c1OC [Fostamatinib (R788), Fostamatinib] | 0.5 | 1 |  |  |
| CC(C)NC[C@@H](C(=O)N1CCN(c2ncnc3c2[C@H](C)C[C@H]3O)CC1)c1ccc(Cl)cc1 [GDC-0068] |  |  | -0.4 | TM Shift LIMK2 (K) [1, 6]: -0.4 K |
| CCNC(=O)Nc1ccc(-c2nc3c(c(N4CCOC[C@@H]4C)n2)CCN(C2COC2)C3)cc1 [GDC-0349] | -1.3 | -0.5 |  |  |
| OCCn1cc(-c2ccc3c(c2)CC/C3=N\O)c(-c2ccncc2)n1 [GDC-0879] | 0 | -0.7 |  |  |
| CS(=O)(=O)N1CCN(Cc2cc3nc(-c4cccc5[nH]ncc45)nc(N4CCOCC4)c3s2)CC1 [GDC-0941] |  |  | -0.3 | TM Shift LIMK2 (K) [1, 6]: -0.4 K |
| Cc1c(CN2CCN(C(=O)[C@H](C)O)CC2)sc2c(N3CCOCC3)nc(-c3cnc(N)nc3)nc12 [GDC-0980 (RG7422)] |  |  | 1.4 | TM Shift LIMK2 (K) [1, 8]: 0.6 K |
| NC(=O)c1cccc(-c2cc(Nc3ccc(OC(F)(F)F)cc3)ncn2)c1 [GNF-2] |  |  | -1.0 | TM Shift LIMK2 (K) [1, 8]: 0.9 K |
| CCn1c(-c2nonc2N)nc2cnc(Oc3cccc(NC(=O)c4ccc(OCCN5CCOCC5)cc4)c3)cc21 [GSK269962] |  |  | 1.0 | TM Shift LIMK2 (K) [1, 8]: 0.1 K |
| CC1=C(C(=O)Nc2cc3cn[nH]c3cc2F)C(c2ccc(C(F)(F)F)cc2)CC(=O)N1 (stereo not shown) [GSK429286A] | 1.4 | 0.5 |  |  |
| C[C@@H](Oc1cc(-n2cnc3ccc(CN4CCN(C)CC4)cc32)sc1C(N)=O)c1ccccc1C(F)(F)F [GSK461364] | 0.8 | 1.1 |  |  |
| O=C(O)c1ccc(-c2c[nH]c3ncc(-c4ccccc4)cc23)cc1C1CCCC1 [GSK650394] | -0.2 | 1.4 |  |  |
| CCn1c(-c2nonc2N)nc2c(C#CC(C)(C)O)ncc(OC[C@H]3CCCNC3)c21 [GSK690693] | 0 | -0.1 |  |  |
| O=C1NC(=O)/C(=C/c2ccc3nccc(-c4ccncc4)c3c2)S1 [GSK1059615] | 2.6 | 1.2 |  |  |
| CCn1cc(-c2ccnc3[nH]c(-c4cccc(CN(C)C)c4)cc23)c(-c2ccc(NC(=O)N(C)C)cc2)n1 [GSK1070916] | -0.1 | 1.3 |  |  |
| CNC(=O)c1c(F)cccc1Nc1nc(Nc2cc3c(cc2OC)CCN3C(=O)CN(C)C)nc2[nH]ccc12 [GSK1838705A] |  |  | 0.4 | TM Shift LIMK2 (K) [1, 8]: 1.0 K |
| CCc1cc(Nc2nccc(-c3c(-c4ccc(OC)c(C(=O)Nc5c(F)cccc5F)c4)nc4ccccn34)n2)c(OC)cc1N1CCC(N2CCN(S(C)(=O)=O)CC2)CC1 [GSK1904529A] |  |  | 0.8 | TM Shift LIMK2 (K) [1, 8]: 0.7 K |
| COc1ncc(-c2ccc3nccc(-c4ccnnc4)c3c2)cc1NS(=O)(=O)c1ccc(F)cc1F [GSK2126458 (GSK458)] |  |  | 1.2 | TM Shift LIMK2 (K) [1, 8]: 0.9 K |
| CNc1nc(-c2ccc3c(N)n[nH]c3c2)cc(N2C[C@@H](C(=O)NC3CCCCC3)CC[C@H]2C)n1 [GSK2334470] | 1.1 | 0.5 |  |  |
| Cc1c(Cn2c(C)nc3c(C(=O)O)cc(N4CCOCC4)cc32)cccc1C(F)(F)F [GSK2636771] | 2 | 0.1 |  |  |
| O=C1Nc2ccc(I)cc2/C1=C/c1cc(Br)c(O)c(Br)c1 [GW5074] |  |  | 0.0 | TM Shift LIMK2 (K) [1, 8]: 5.6 K |
| Cc1cccc(-c2nn3c(c2-c2ccnc4ccc(C(N)=O)cc24)CCC3)n1 [Galunisertib] | -0.5 | 0.3 |  |  |

| Structure (SMILES) | ΔTm at 10 µM [1, 4] [°C] | ΔTm at 10 µM [2, 5] [°C] | TM Shift LIMK1 (K) [2, 7] [K] | further results |
| --- | --- | --- | --- | --- |
| Cc1cc(Nc2cc(CN3CCOCC3)c3nc(C)c(Cc4ccc(Cl)cc4F)n3n2)n[nH]1 [Gandotinib] |  |  | 5.4 | TM Shift LIMK2 (K) ([1]; LIMK2KD, compound 10 µM, single shot, listed as gandotinib, 10 µM): −0.5 K |
| COc1cc2ncnc(Nc3ccc(F)c(Cl)c3)c2cc1OCCCN1CCOCC1 [Gefitinib (ZD1839), Gefitinib] |  | -0.6 |  | ΔTm at 10 µM [1, 3]: 0.5 °C |
| O=c1c(-c2ccc(O)cc2)coc2cc(O)cc(O)c12 [Genistein] | 4 | -0.3 |  |  |
| COc1ccc2c(c1)c(C1=C(c3c[nH]c4ccccc34)C(=O)NC1=O)cn2CCCN(C)C [Go 6983] |  |  | 0.5 | TM Shift LIMK2 (K) [1, 8]: 1.8 K |
| CN1CCN(C2CCN(C(=O)Nc3cc(Oc4ccc(NC(=O)C5(C(=O)Nc6ccc(F)cc6)CC5)c(F)c4)ccn3)CC2)CC1 [Golvatinib (E7050), Golvatinib] | 1 | 3 |  |  |
| Cl.Cl.O=S(=O)(NCCNC/C=C/c1ccc(Br)cc1)c1cccc2cnccc12 [H 89 2HCl] |  |  | 1.8 | TM Shift LIMK2 (K) [1, 8]: 3.9 K |
| Cc1cc(Nc2ncnc3ccc(-c4ccc(CNCCS(C)(=O)=O)o4)cc23)ccc1Oc1ccn2ncnc2c1 [HER2-Inhibitor-1] |  |  | 2.0 | TM Shift LIMK2 (K) [1, 8]: 0.2 K |
| COc1ccc(S(=O)(=O)N(C(C)=O)c2ccccc2/C=C/c2cc[n+]([O-])cc2)cc1 [HMN-214] | 1 | 2.5 |  |  |
| CCS(=O)(=O)Nc1ccc2c(c1)/C(=C(/Nc1ccc(CN3CCCCC3)cc1)c1ccccc1)C(=O)N2 [Hesperadin] | 1.2 | 2.7 |  |  |
| C=CCc1ccc(O)c(-c2ccc(O)c(CC=C)c2)c1 [Honokiol] | 1.7 | 0.9 |  |  |
| O=C(c1ccc(Nc2nccc(-c3cc4ccccc4s3)n2)cc1)N1CCC(N2CCCC2)CC1 [IKK-16 (IKK Inhibitor VII)] |  |  | 7.0 | TM Shift LIMK2 (K) [1, 8]: 2.1 K |
| O=C(Nc1cc(C(F)(F)F)cc(C(F)(F)F)c1)c1cc(Cl)ccc1O [IMD 0354] | 1.4 | -0.6 |  |  |
| CNC(=O)c1ccc(-c2cnc3ncc(Cc4ccc5ncccc5c4)n3n2)cc1F [INCB28060] | 0 | -0.2 |  |  |
| CC(C)n1nc(-c2ccc3oc(N)nc3c2)c2c(N)ncnc21 [INK 128 (MLN0128)] | 0.3 | 1.4 |  |  |
| Oc1ccc2ccccc2c1SSc1c(O)ccc2ccccc12 [IPA-3] |  |  | 0.0 | TM Shift LIMK2 (K) [1, 8]: 1.2 K |
| C[C@H](Nc1ncnc2nc[nH]c12)c1cc2cccc(Cl)c2c(=O)n1-c1ccccc1 [IPI-145 (INK1197)] | -0.6 | -1.5 |  |  |
| C=CC(=O)N1CCC[C@@H](n2nc(-c3ccc(Oc4ccccc4)cc3)c3c(N)ncnc32)C1 [Ibrutinib (PCI-32765), Ibrutinib] | 0.7 | 2.4 |  |  |
| C#Cc1cccc(Nc2ncnc3cc4c(cc23)OCCOCCOCCO4)c1 [Icotinib] | -0.6 | -0.2 |  |  |
| CC[C@H](Nc1ncnc2[nH]cnc12)c1nc2cccc(F)c2c(=O)n1-c1ccccc1 [Idelalisib] |  |  | 0.5 | TM Shift LIMK2 (K) [1, 6]: -0.8 K; TM Shift LIMK2 (K) ([1]; LIMK2KD, compound 10 µM, single shot, listed as CAL-101 (Idelalisib, GS-1101), 10 µM): 1.8 K; TM Shift LIMK1 (K) ([2]; 2 µM LIMK1KD, compound 10 µM, single shot, listed as CAL-101 (Idelalisib, GS-1101)): -0.1 K |
| Cc1ccc(NC(=O)c2ccc(CN3CCN(C)CC3)cc2)cc1Nc1nccc(-c2cccnc2)n1 [Imatinib (STI571), Imatinib] | 1 |  | 0.8 |  |
| Cc1ccc(NC(=O)c2ccc(CN3CCN(C)CC3)cc2)cc1Nc1nccc(-c2cccnc2)n1 [Imatinib Mesylate (STI571), Imatinib Mesylate] |  |  | 0.0 | TM Shift LIMK2 (K) [1, 6]: 0.8 K |
| O=C1Nc2ccccc2/C1=C1/Nc2ccccc2C1=O [Indirubin] | 2.6 | 1.4 |  |  |
| CC(C)NC[C@@H](C(=O)N1CCN(c2ncnc3c2[C@H](C)C[C@H]3O)CC1)c1ccc(Cl)cc1 [Ipatasertib] |  |  | 2.3 | TM Shift LIMK2 (K) [1, 6]: 2.3 K |
